Data: US20230339863A1, “INDAZOLE DERIVATIVES AS CANNABINOID RECEPTOR PARTIAL AGONISTS” (RESEARCH TRIANGLE INSTITUTE, priority 2020, published 2023)

How the values were obtained:
[1] = target: T1, human CB1 (Homo sapiens (Human), UniProt P21554); assay: In vitro cannabinoid receptor activity assay (calcium mobilization, FLIPR) in CHO cells expressing human CB1 and Gαq16; format: cell-based; settings: for EC50: CHO cells, hCB1, calcium fluorescence, read-out: hCB1 Ca EC50; for hCB1 Ca Span: percentage of the maximum CP55940 signal
Experimental: (§1) In vitro cannabinoid receptor activity assay. Chinese Hamster Ovary (CHO) cells stably expressing either human CB1 or CB2 cDNA and the promiscuous G-protein Gαq16 were transferred to each well of a black Costar 96-well optical bottom plate (Corning Corporation). Each plate was incubated at 37° C. for 24 hr to confluence. The culture media was removed from the plates and cells were subsequently loaded with a fluorescent calcium probe (Calcium 5 dye, Molecular Devices) at a final loading concentration of 2 μM in a HBSS-based buffer containing 20 mM HEPES, 1% BSA and 10 μM Probenecid (Sigma) in a total volume of 225 μl. Cells were incubated at 37° C. for 1 hr and then stimulated with various concentrations of a test agent using a FLIPR Tetra plate-reader, which automatically added the agonist at 10× concentration to each well after reading baseline values for ˜17 sec. Agonist-mediated change in fluorescence (488 nm excitation, 525 nm emission) was monitored in each well at 1 sec intervals for 60 sec and reported for each well. Data were analyzed using Prism software (GraphPad). Non-linear regression analysis was performed to fit data and obtain maximum response (Emax), effective concentration for 50% response (EC50), correlation coefficient (r2) and other parameters. All experiments were performed 3-6 times to ensure reproducibility.
(§2) Reference is made to the following reference, hereby incorporated by reference with regard to such assay, Seltzman, et al., Peripherally Selective Cannabinoid 1 Receptor (CB1R) Agonists for the Treatment of Neuropathic Pain, J Med Chem. 2016 Aug. 25; 59 (16):7525-43. doi: 10.1021/acs.jmedchem.6b00516. Epub 2016 Aug. 10.

[2] = target: T2, human CB2 (Homo sapiens (Human), UniProt P34972); assay: In vitro cannabinoid receptor activity assay (calcium mobilization, FLIPR) in CHO cells expressing human CB2 and Gαq16; format: cell-based; settings: for EC50: CHO cells, hCB2, calcium fluorescence, read-out: hCB2 Ca EC50; for hCB2 Ca Span: percentage of the maximum CP55940 signal
Experimental: as §1, §2

[3] = target: T1, human CB1; assay: In vitro binding affinity, [3H]CP-55,940 radioligand displacement, HEK cell membranes overexpressing human CB1; settings: [3H]CP-55,940 displacement, read-out: hCB1 Ki
Experimental: (§3) In vitro binding affinity determination using radioligand displacement. Plasma membranes were isolated from HEK cells overexpressing either human CB1 or CB2. Binding was initiated with the addition of 40 μg of cell membrane proteins to assay tubes containing [3H]CP-55,940 (ca. 130 Ci/mmol), a test compound (for displacement studies), and a sufficient quantity of buffer (50 mM Tris-HCl, 1 mM EDTA, 3 mM MgCl2, 5 mg/mL BSA, pH 7.4) to bring the total incubation volume to 0.5 mL. Nonspecific binding was determined by the inclusion of 10 μM unlabeled CP-55,940. Following incubation at 30° C. for 1 h, binding was terminated by vacuum filtration through GF/C glass fiber filter plates. The filter plates were washed extensively and air-dried and sealed on the bottom. Liquid scintillate was added to the wells and the top sealed. After incubating the plates in cocktail for at least 2 h, the radioactivity present was determined by liquid scintillation spectrometry. Assays were done in duplicate, and results represent combined data from 3-6 experiments. Saturation and displacement data were analyzed by unweighted nonlinear regression of receptor binding data. For displacement studies, curve-fitting and IC50 calculation were done with GraphPad Prism (GraphPad Software, Inc., San Diego, CA).
(§4) Reference is made to the following reference, hereby incorporated by reference with regard to such assay, Zhang et al., Synthesis and biological evaluation of bivalent ligands for the cannabinoid 1 receptor, J Med Chem. 2010 Oct. 14; 53 (19):7048-60. doi: 10.1021/jm1006676.

[4] = target: T2, human CB2; assay: In vitro binding affinity, [3H]CP-55,940 radioligand displacement, HEK cell membranes overexpressing human CB2; settings: [3H]CP-55,940 displacement, read-out: hCB2 Ki
Experimental: as §3, §4

SMILES | EC50 [1] | hCB1 Ca Span [1] | EC50 [2] | hCB2 Ca Span [2] | Ki [3] | Ki [4]
CC(C)(NC(=O)c1nn(Cc2ccc(F)cc2F)c2ccccc12)c1cccc(C(N)=O)c1 [Example 13, N-[2-(3-Carbamoylphenyl)propan-2-yl]-1-[(2,4-difluorophenyl)methyl]-1H-indazole-3-carboxamide] | 0.18 µM | 32% | 0.3 µM | 19% | 0.018 µM | 0.027 µM
C[C@H](NC(=O)c1nn(Cc2ccc(F)cc2)c2ccccc12)c1cccc(C(N)=O)c1 [Example 11, N-[(1S)-1-(3-Carbamoylphenyl)ethyl]-1-[(4-fluorophenyl)methyl]-1H-indazole-3-carboxamide] | 0.027 µM | 86% | 0.05 µM | 48% | 0.007 µM | 0.034 µM
